Data set [1] deals with primary canine DLBCL cells. The data set is described as follows: MTS cell viability assay, primary canine DLBCL samples. It counts as cell-based. To be noted: Canis lupus familiaris, primary sample #1, 72 hours, read-out: IC50, DLBCL#1. Here is the method:
Cryopreserved tumor cells obtained from sterile lymph node biopsy samples from dogs with diffuse large B cell lymphoma (DLBCL) were cultured with 100 ng/mL of megaCD40L (Enzo Life Science, Plymouth Meeting, PA) as previously described, [27]. The human T-cell leukemia cell line, Jurkat, was from the American Type Culture Collection (ATCC, Manassas, VA) and cultured in RPMI1640 medium (Gibco/BRL, Grand Island, NY) containing 10% fetal bovine serum (FBS; Atlas Biologicals, Fort Collins, CO), 2-mercaptoethanol (Gibco/BRL), HEPES, L-glutamine, sodium pyruvate (Mediatech Inc., Manassas, VA), non-essential amino acids (Sigma Aldrich, St. Louis, MO), and Primocin (Invivogen, San Diego, CA). The canine DLBCL cell line CLBL1 obtained from Dr. Barbara Rütgen (University of Vienna, Austria), [29] and human DLBCL cell lines OCI-Ly3 [30], [31] and OCI-Ly10 [32] obtained from Dr. Anne Novak (Mayo Clinic Cancer Center, Rochester, MN) were cultured in complete Iscove’s Modified Dulbecco’s medium (IMDM) containing 20% FBS, L-glutamine, and Primocin. All cells were maintained at 37°C in a humidified 5% CO2 atmosphere. The following additional canine tumor cell lines were used to evaluate response to SINE compounds: C2, mast cell tumor line provided by Dr. George Caughey, UCSF, San Francisco, CA [33]; OSA16, osteosarcoma cell line, provided by Dr. Jaime Modiano, UM, Minneapolis, MN [34]; and 323610-3, malignant melanoma cell line, provided by Dr. Michael Kent, UCD, Davis, CA [35]. All cell lines were cultured in complete RPMI media containing 10% FBS, antibiotic/antimycotic, HEPES, sodium pyruvate, nonessential amino acids and Glutamax (media supplements from Gibco).
Cell viability for lymphoid lines was determined by the MTS (3-(4, 5-dimethylthiazol-2-yl)-5-(3-carboxymethoxyphenyl)-2-(4-sulfophenyl)-2H-tetrazolium) assay using CellTiter 96® AQueous One Solution Cell Proliferation Assay Kit (Promega, Madison, WI). Briefly, for lymphoid cell lines, 5×10^4 cells (or 1×10^5 primary DLBCL cells) were cultured in 100 µL of complete medium in 96-well plates in the presence of SINE compounds. After 72 hours, 20 µL of MTS solution was added to each well and cells were incubated for another 4 hours before measuring absorbance at 490 nm using a Wallac Victor 1420 Multilabel Counter (Perkin Elmer, Waltham, MA). The IC50 of SINE was calculated using Prism 6 software (GraphPad Software, Inc., La Jolla, CA).

Data set [2] in a line: Single oral dose pharmacokinetics in healthy dogs. It counts as in vivo. The settings on record: male, beagle, dog, plasma, 1.5 mg/kg single oral dose, fed, 6 dogs. Here is the method:
KPT-335 was administered as a single oral dose in capsule formulation to 6 male beagle dogs at approximately 1.5 mg/kg following a meal. Serial blood samples were collected from each dog prior to dosing and at 0.25, 0.5, 1, 2, 4, 6, 8, 12, 18, 24 and 48 hours post-dose and placed into tubes containing K2EDTA. Blood samples were stored on wet ice until processed to plasma by centrifugation at 3500 rpm for 10 minutes at 5°C. Plasma samples were stored in at −80°C until analysis at Agilux Laboratories (Worcester, MA). Plasma samples were analyzed for parent drug concentration using sample preparation by protein precipitation and then analysis by LC-MS/MS using propranolol as the internal standard. The method was qualified for use (a single batch to assess method performance: precision and accuracy; linearity of dilution; and matrix specificity) prior to initiation of sample analysis. Acceptance criteria for calibration standards and quality control samples were within ±30% nominal concentration. Individual animal pharmacokinetic parameter values were derived by the pharmacokinetic analysis program Phoenix WinNonlin version 6.3 (Pharsight Corporation), using the non-compartmental Model 200 with uniform weighting. The single-dose pharmacokinetic parameters assessed include: Cmax (maximum concentration observed); Tmax (time of observed maximum concentration); AUC0→∞ (area under the concentration-time curve from time zero extrapolated to infinity); AUC0→last (area under the concentration-time curve from time zero to the time of the last quantifiable concentration); and t1/2 (terminal half life). Descriptive statistical data (mean, standard deviation, and standard error of the mean) were calculated from the unrounded numbers in an Excel (Microsoft) spreadsheet. Concentration results, means, and calculated parameters were reported to 3 significant figures.

Data set [3] in a line: Oral bioavailability. It counts as in vivo. The settings on record: normal laboratory dogs.
Data set [4] has as its system CLBL1 DLBCL cells. As to the kind of experiment: MTS cell viability assay, CLBL1. It counts as cell-based, canine. The settings on record: Canis lupus familiaris, CLBL-1, 72 hours, read-out: IC50 (± S.D.), CLBL1. Here is the method: Cryopreserved tumor cells obtained from sterile lymph node biopsy samples from dogs with diffuse large B cell lymphoma (DLBCL) were cultured with 100 ng/mL of megaCD40L (Enzo Life Science, Plymouth Meeting, PA) as previously described, [27]. The human T-cell leukemia cell line, Jurkat, was from the American Type Culture Collection (ATCC, Manassas, VA) and cultured in RPMI1640 medium (Gibco/BRL, Grand Island, NY) containing 10% fetal bovine serum (FBS; Atlas Biologicals, Fort Collins, CO), 2-mercaptoethanol (Gibco/BRL), HEPES, L-glutamine, sodium pyruvate (Mediatech Inc., Manassas, VA), non-essential amino acids (Sigma Aldrich, St. Louis, MO), and Primocin (Invivogen, San Diego, CA). […]
Cell viability for lymphoid lines was determined by the MTS (3-(4, 5-dimethylthiazol-2-yl)-5-(3-carboxymethoxyphenyl)-2-(4-sulfophenyl)-2H-tetrazolium) assay using CellTiter 96® AQueous One Solution Cell Proliferation Assay Kit (Promega, Madison, WI). […] After 72 hours, 20 µL of MTS solution was added to each well and cells were incubated for another 4 hours before measuring absorbance at 490 nm using a Wallac Victor 1420 Multilabel Counter (Perkin Elmer, Waltham, MA). The IC50 of SINE was calculated using Prism 6 software (GraphPad Software, Inc., La Jolla, CA).

Data set [5] in a line: Phase I dose escalation study, toxicity assessment. The settings on record: dog, in vivo, po; orally twice/week (Monday/Thursday), dogs with spontaneous cancer; read-out: maximum tolerated dose (MTD). The method, then: This study was a Phase I dose escalating, open label assessment of the safety and biologic activity of KPT-335 in client owned dogs with spontaneous malignancies. Assessment of clinical toxicities and tumor response was performed at each visit. Dogs were evaluated for hematologic and biochemical toxicities every 7 days with routine bloodwork. The initial dose of 1 mg/kg orally twice per week (Monday/Thursday or Tuesday/Friday) was based on previous data from normal laboratory dogs (data not shown) and dose escalation was set at 0.25 mg/kg increments in cohorts of 3 until dose limiting toxicity (DLT) was identified. The DLT was considered to be any grade 3 or 4 hematologic or non-hematologic toxicity based on the established VCOG-CTCAE criteria. […] Disease progression or signs and symptoms definitely related to disease were not considered adverse events (AEs). The maximum tolerated dose (MTD) was considered to be one dose below that at which DLT occurred.
Each patient underwent a baseline complete history, physical examination, and pre-dose laboratory assessment that included a complete blood count (CBC), serum biochemistry profile, coagulation parameters (PT/PTT) and urinalysis. Patients were assessed for adverse events on days 7, 14, 21, and 28, and every 2 weeks thereafter at which time all laboratory assessments were repeated. […]

The test system of data set [6] is canine melanoma cell lines. The data set is described as follows: Proliferation and viability of canine melanoma cell lines (data not shown). It counts as cell-based. To be noted: Canis lupus familiaris, read-out: IC50 concentrations, canine melanoma cell lines.

As to `O=C(/C=C\n1cnc(-c2cc(C(F)(F)F)cc(C(F)(F)F)c2)n1)NNc1ccccn1` [KPT-335], the IC50 in data set [1] was 2 nM; in data set [4], 8.5 ± 4.1 nM; in data set [6], 95 to 290 nM. The Cmax in data set [2] (po, 1.5 mg/kg, capsule) was approximately 250 ng/mL. In addition, the Tmax in data set [2] (po, 1.5 mg/kg, capsule) is approximately 4 h. In data set [2], this molecule showed an AUC of 1800 ng·h/mL. The same molecule displayed an AUC(0-inf) in data set [2] (capsule) of 1810 ng·h/mL. In addition, the AUC(0-t) in data set [2] (capsule, read-out: AUC0-last, mean) is 1760 ng·h/mL. Also, the half-life in data set [2] (capsule, read-out: t1/2, mean (converted)) was 3.88 h. The oral bioavailability result in data set [3] was “excellent oral bioavailability”. Further, the MTD in data set [5] worked out at 1.75 mg/kg.

Source of the values: paper PMC3913620, “Preclinical Evaluation of the Novel, Orally Bioavailable Selective Inhibitor of Nuclear Export (SINE) KPT-335 in Spontaneous Canine Cancer: Results of a Phase I Study” (PLoS ONE, 2014).
